Source: paper PMC9313321 (Biomedicines, 2022)

What was measured:
Aβ42 self-aggregation = target: T1, Aβ42 self-aggregation (Homo sapiens, UniProt P05067); test: biochemical; type: biochemical; conditions: for inhibition at 20 µM: read-out: Aβ42 Self-Aggreg. Inhib; for Aβ42 Self-Aggreg. Inhib: 20 μM inhibitor, absence of copper, thioflavin-T fluorescence, 37 °C 24 h
T1 construct: Beta-amyloid protein, fragment 1-42; purchased GeneCust
Protocol: (§1) The inhibition of Aβ42 aggregation and Cu(II)-induced Aβ42 aggregation, carried out by the RIV–BIM hybrids, was studied using a reported method based on the fluorescence emission of thioflavin T [52, 53].
(§2) Solutions of phosphate buffer 0.215 M at pH = 8.00, Na2CO3 300 μM in distilled water, NaOH 250 mM in distilled water, glycine-NaOH 50 mM buffer at pH = 8.50 and CuCl2 240 μM in phosphate buffer were prepared. Stock solutions of […] of the RIV–BIM compounds were prepared in MeOH (with 20% DMSO). Working solutions of 240 μM of the RIV–BIM hybrids were prepared by the proper dilution of their stock solutions with phosphate buffer. A working solution of glycine-NaOH 50 mM buffer at pH = 8.50 containing 5 μM of thioflavin T (ThT) was prepared daily. Aβ42 (GeneCust) was pre-treated with 1,1,1,3,3,3-hexafluoro-2-propanol (HFIP) to obtain a solution of 0.149 mM by brief sonication and vortexing, which was kept covered overnight at room temperature. From the Aβ42 solution, aliquots of 250 μL were placed into Eppendorf tubes under ice and set to evaporate inside a hood at room temperature overnight. When the contents of the Eppendorf tubes were dried, the Aβ42 aliquots were stored at −20 °C until needed. To obtain the Aβ42 working solution, the Aβ42 aliquots were dissolved with a freshly prepared mixture of 69.5 μL of CH3CN/Na2CO3 (300 μM)/NaOH (250 mM) (48.3/48.3/3.4, v/v/v) by brief sonication and vortexing to obtain an Aβ42 solution of 531.24 μM. To this solution, 392.5 μL of phosphate buffer was added, achieving an Aβ42 working solution of 80 μM. To prepare the incubations, three replicates of Aβ42 alone (30 μL Aβ42 80 μM + 30 μL phosphate buffer), Aβ42 with RIV–BIM (30 μL Aβ42 80 μM + 10 μL RIV–BIM 240 μM + 20 μL phosphate buffer), Aβ42 with copper (30 μL Aβ42 80 μM + 10 μL CuCl2 240 μM + 20 μL phosphate buffer) and Aβ42 with copper and RIV–BIM (30 μL Aβ42 80 μM + 10 μL CuCl2 240 μM + 10 μL RIV–BIM 240 μM + 10 μL phosphate buffer) were placed in Eppendorfs. To obtain the blank solutions, a similar number of Eppendorfs, replacing Aβ42 with phosphate buffer, were prepared. Incubations were performed in a water bath at 37 °C with agitation for 24 h. Afterwards, 180 μL of glycine-NaOH 50 mM buffer at pH = 8.50 containing 5 μM of ThT was added to each Eppendorf and then they were vortexed. Finally, 200 μL of solution from each Eppendorf was placed in the wells of a microplate and fluorescence measurements were monitored using a Spectramax Gemini EM (Molecular Devices) fluorimeter with an excitation wavelength of 446 nm and an emission wavelength of 485 nm. Blank signals were subtracted from the corresponding samples. The fluorescence intensity of the Aβ42 + RIV–BIM solution was compared to that of the Aβ42 solution to obtain the inhibition of Aβ42 self-aggregation for each compound. The fluorescence intensity of the Aβ42 + Cu(II) + RIV–BIM solution was compared to that of the Aβ42 + Cu(II) solution to obtain the inhibition of the Cu(II)-induced Aβ42 aggregation for each hybrid.
(§3) The anti-amyloidogenic capacity of the compounds was assessed in vitro using the thioflavin T (ThT) method. To record fluorescence emission, excitation (446 nm) and emission (485 nm) wavelengths were used. When ThT binds to amyloid fibrils, an increase in absorbance and emission of this dye occurs with concomitant red shifts of the respective spectra. The percent of inhibition of Aβ42 aggregation is shown in Table 1, and the assays were performed in the presence of 20 μM of inhibitor. These concentration conditions were used to overcome solubility problems of some compounds in the aqueous phosphate buffer working medium. […]. […]

[1] = target: T2, Cu(II)-induced Aβ42 aggregation (Homo sapiens, UniProt P05067); test: Inhibition of Cu(II)-induced Aβ42 aggregation (thioflavin T fluorescence); type: biochemical; conditions: for inhibition at 20 µM: read-out: Aβ42 Cu-Ind. Aggreg. Inhib, copper (40 μM), 20 μM inhibitor, thioflavin-T fluorescence, 37 °C 24 h
T2 construct: Beta-amyloid protein, fragment 1-42; purchased GeneCust
T2 sequence (P05067 672-713 limits assumed): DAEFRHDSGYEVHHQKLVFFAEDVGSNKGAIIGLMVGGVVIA
Protocol: as §1, §2, §3

[2] = target: T3, electric eel acetylcholinesterase (eeAChE) (Electrophorus electricus, UniProt O42275); test: biochemical
T3 construct: purchased Sigma-Aldrich
T3 sequence (O42275 24-633): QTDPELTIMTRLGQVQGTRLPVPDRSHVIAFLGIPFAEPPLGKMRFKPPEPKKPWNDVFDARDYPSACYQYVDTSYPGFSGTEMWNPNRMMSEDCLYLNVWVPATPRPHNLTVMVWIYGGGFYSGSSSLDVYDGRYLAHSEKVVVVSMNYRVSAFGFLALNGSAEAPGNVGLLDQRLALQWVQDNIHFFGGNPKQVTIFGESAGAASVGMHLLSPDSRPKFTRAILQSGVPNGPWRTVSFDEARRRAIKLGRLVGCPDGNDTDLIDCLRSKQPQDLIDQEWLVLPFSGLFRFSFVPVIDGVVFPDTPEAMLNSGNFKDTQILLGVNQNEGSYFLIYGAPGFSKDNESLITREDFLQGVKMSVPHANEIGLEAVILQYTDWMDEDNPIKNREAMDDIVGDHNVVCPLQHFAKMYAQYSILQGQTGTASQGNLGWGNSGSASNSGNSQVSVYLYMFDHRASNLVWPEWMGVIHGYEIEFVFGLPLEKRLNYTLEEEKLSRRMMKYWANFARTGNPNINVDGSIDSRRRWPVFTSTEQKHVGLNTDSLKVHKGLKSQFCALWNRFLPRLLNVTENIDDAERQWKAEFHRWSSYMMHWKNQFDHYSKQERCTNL
Protocol: (§4) The inhibition of electric eel acetylcholinesterase (eeAChE) and equine butyrylcholinesterase (eqBChE), both obtained from Sigma-Aldrich (Burlington, MA, USA), was studied using an adaptation of Elmman’s method, as previously described. For this, tris(hydroxymethyl)aminomethane (TRIS) 50 mM buffer at pH = 8.00, 4-(2-hydroxyethyl)-1-piperazine-ethanesulfonic acid (HEPES) 50 mM buffer at pH = 8.00 and HEPES 50 mM buffer at pH = 8.00 with NaCl 50 mM and MgCl2 20 mM were prepared. […] Working solutions of AChI and BChI were prepared daily by the proper dilution of the stock solutions in distilled water. A working solution of 5,5′-dithiobis-(2-nitrobenzoic acid) (DTNB) 3 mM in HEPES (NaCl, MgCl2) was prepared daily and kept under darkness. Stock solutions of eeAChE and eqBChE were prepared by dissolving the lyophilized powder enzyme in 10 mL of TRIS buffer under ice and they were divided into aliquots of 50 and 5 UN mL^−1 that were stored at −20 °C until needed. Stock solutions of 1 mg of each ligand in 1 mL MeOH (with 20% of DMSO) were prepared and working solutions for each ligand were obtained by the corresponding dilution from the stock solutions. A control measurement with 5 replicates (without ligand) and a calibration curve of 5 points with 3 replicates per point was derived. […] A blank solution containing HEPES (399 μL) and MeOH (50 μL) was prepared at the same time. […] The experiments were performed twice.

[3] = target: equine butyrylcholinesterase (eqBChE) (Equus caballus, UniProt P81908); test: biochemical; conditions: for SI (selectivity index): IC50 (AChE)/IC50 (BChE), eeAChE and eqBChE; for IC50: eqBChE, 15 min pre-incubation, pH 8.00, read-out: BChE Inhib IC50
equine butyrylcholinesterase (eqBChE), sequence (P81908 whole entry): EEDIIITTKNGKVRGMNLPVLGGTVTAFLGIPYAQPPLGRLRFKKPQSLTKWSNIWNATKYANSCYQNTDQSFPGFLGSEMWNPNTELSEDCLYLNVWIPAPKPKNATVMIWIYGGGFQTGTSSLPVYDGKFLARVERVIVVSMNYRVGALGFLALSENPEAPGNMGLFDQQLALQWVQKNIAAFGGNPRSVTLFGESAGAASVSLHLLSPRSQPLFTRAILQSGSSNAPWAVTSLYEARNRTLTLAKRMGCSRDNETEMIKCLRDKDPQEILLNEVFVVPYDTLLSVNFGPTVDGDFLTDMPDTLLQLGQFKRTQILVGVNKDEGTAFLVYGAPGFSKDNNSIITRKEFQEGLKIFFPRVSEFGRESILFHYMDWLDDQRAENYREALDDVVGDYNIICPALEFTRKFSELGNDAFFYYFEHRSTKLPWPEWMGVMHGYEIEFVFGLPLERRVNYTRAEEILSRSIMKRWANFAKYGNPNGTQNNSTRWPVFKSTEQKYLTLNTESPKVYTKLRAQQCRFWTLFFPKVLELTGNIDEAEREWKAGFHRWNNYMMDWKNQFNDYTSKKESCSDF
Protocol: as §4

T1 sequence (P05067 672-713 limits assumed): as the sequence (P05067 672-713 limits assumed) above

SMILES: CCN(C)C(=O)Oc1cccc(CNC(=O)c2ccc3nc(-c4ccccc4O)[nH]c3c2)c1 [Compound 4b, 3-((2-(2-Hydroxyphenyl)-1H-benzo[d]imidazole-6-carboxamido)methyl) Phenyl Ethylmethylcarbamate]
- inhibition at 20 µM (Aβ42 self-aggregation): 39.6%
- inhibition at 20 µM [1]: 48.8%
- IC50 [2]: 14 ± 2 µM
- SI (selectivity index) [3]: 2.17
- IC50 [3]: 6.5 ± 0.4 µM

SMILES: CCN(C)C(=O)Oc1cccc(NC(=O)c2cccc3[nH]c(-c4ccccc4O)nc23)c1 [Compound 5a, 3-(2-(2-Hydroxyphenyl)-1H-benzo[d]imidazole-4-carboxamido)phenyl Ethylmethylcarbamate]
- inhibition at 20 µM (Aβ42 self-aggregation): 44.5%
- inhibition at 20 µM [1]: 45.4%
- IC50 [2]: 17.6 ± 0.4 µM
- SI (selectivity index) [3]: 19.6
- IC50 [3]: 0.9 ± 0.1 µM

SMILES: CCN(C)C(=O)Oc1cccc(CNC(=O)c2cccc3[nH]c(-c4ccccc4O)nc23)c1 [Compound 5b, 3-((2-(2-Hydroxyphenyl)-1H-benzo[d]imidazole-4-carboxamido)methyl) Phenyl Ethylmethylcarbamate]
- inhibition at 20 µM (Aβ42 self-aggregation): 58.7%
- inhibition at 20 µM [1]: 60.8%
- IC50 [2]: 31.7 ± 0.1 µM
- SI (selectivity index) [3]: 105.7
- IC50 [3]: 0.3 ± 0.01 µM

SMILES: CCN(C)C(=O)Oc1cccc(CCNC(=O)c2ccc3nc(-c4ccccc4O)[nH]c3c2)c1 [Compound 4c, 3-(2-(2-(2-Hydroxyphenyl)-1H-benzo[d]imidazole-6-carboxamido)ethyl) Phenylethylmethylcarbamate]
- Aβ42 Self-Aggreg. Inhib (Aβ42 self-aggregation): very weakly effective
- inhibition at 20 µM (Aβ42 self-aggregation): 21.2%
- inhibition at 20 µM [1]: 22%
- IC50 [2]: 17.7 ± 0.8 µM
- SI (selectivity index) [3]: 3.69
- IC50 [3]: 4.8 ± 0.1 µM

SMILES: CCN(C)C(=O)Oc1ccc(CCCNC(=O)c2ccc3nc(-c4ccccc4O)[nH]c3c2)cc1 [Compound 4d, 4-(3-(2-(2-Hydroxyphenyl)-1H-benzo[d]imidazole-6-carboxamido)propyl) Phenyl Ethylmethylcarbamate]
- Aβ42 Self-Aggreg. Inhib (Aβ42 self-aggregation): very weakly effective
- inhibition at 20 µM (Aβ42 self-aggregation): 20.1%
- inhibition at 20 µM [1]: 21.3%
- IC50 [2]: 24 ± 1 µM
- SI (selectivity index) [3]: 1.25
- IC50 [3]: 19.2 ± 0.7 µM

SMILES: CCN(C)C(=O)Oc1ccc(CCCNC(=O)c2cccc3[nH]c(-c4ccccc4O)nc23)cc1 [Compound 5d, 4-(3-(2-(2-Hydroxyphenyl)-1H-benzo[d]imidazole-4-carboxamido) Propyl) Phenyl Ethyl(methyl)carbamate]
- inhibition at 20 µM (Aβ42 self-aggregation): 42.1%
- Aβ42 Cu-Ind. Aggreg. Inhib ([1]; copper (40 μM), 20 μM inhibitor, thioflavin-T fluorescence, 37 °C 24 h): 40.3%
- inhibition at 20 µM [1]: 41.2 to 60.8%
- IC50 [2]: 21.4 ± 0.4 µM
- SI (selectivity index) [3]: 12.6
- IC50 [3]: 1.7 ± 0.2 µM

SMILES: CCN(C)C(=O)Oc1cccc(NC(=O)c2ccc3nc(-c4ccccc4O)[nH]c3c2)c1 [Compound 4a, 3-(2-(2-Hydroxyphenyl)-1H-benzo[d]imidazole-6-carboxamido)phenyl Ethylmethylcarbamate]
- inhibition at 20 µM (Aβ42 self-aggregation): 39%
- inhibition at 20 µM [1]: 41.2%
- IC50 [2]: 17.6 ± 0.6 µM
- SI (selectivity index) [3]: 3.03
- IC50 [3]: 5.85 ± 0.03 µM
